The values that follow come from patent US7485721B2, “Substituted porphyrins” (Duke University, priority 2002, dated 2009).

A short description of data set [1]: Catalysis of O2^− dismutation, cytochrome c assay (xanthine/xanthine oxidase). In kind it is biochemical. Particulars: 0.05 M phosphate buffer, pH 7.8, (25 ± 1) ° C. An excerpt: Catalysis of O2^− dismutation. We have previously shown that the O2^− /cytochrome c reduction assay gives the same catalytic rate constants as does pulse radiolysis for Mn^IIITE-2-PyP^5+, {Mn^IIIBVDME}2, {Mn^IIIBV}2 and MnCl2.^21 Therefore the convenient cytochrome c assay was used to characterize the series of Mn(III) N-alkylpyridylporphyrins. The xanthine/xanthine oxidase reaction was the source of O2^− and ferricytochrome c was used as the indicating scavenger for O2^−.^22 The reduction of cytochrome c was followed at 550 nm. Assays were conducted at (25±1) ° C., in 0.05 M phosphate buffer, pH 7.8, 0.1 mM EDTA, in the presence and absence of 15 μg/mL of catalase. Rate constants for the reaction of metalloporphyrins with O2′^− were based upon competition with 10 μM cytochrome c, kcyt c=2.6×10^5 M^−1 s^−1 as described elsewhere.^21 The O2^− was produced at the rate of 1.2 μM per minute. Any possible interference through inhibition of the xanthine/xanthine oxidase reaction by the test compounds was examined by following the rate of urate accumulation at 295 nm in the absence of cytochrome c. No reoxidation of cytochrome c by the metalloporphyrins was observed
Catalysis of O2^− dismutation. […] All of the manganese compounds are potent catalysts of O2^− dismutation with log kcat between 7.79 and 7.25.

A short description of data set [2]: Thin-layer chromatography, retention factor Rf as lipophilicity. In kind it is physicochemical. Particulars: silica gel TLC plates, 1:1:8 KNO3-saturated H2O:H2O:acetonitrile; for Rf (compound path/solvent path): Mn(III) complex; for Rf (compound path/solvent path), metal-free porphyrin (in parentheses): corresponding metal-free porphyrin H2T(alkyl)-2-PyP^4+. An excerpt: Thin-layer chromatography. All ligands and their Mn(III) complexes were chromatographed on silica gel TLC plates using 1:1:8 KNO3-saturated H2O:H2O: acetonitrile. The atropoisomers could not be separated for the methyl^19 and ethyl analogues,^24 they begin to separate for the n-propyl and n-butyl species and were clearly resolved with the n-hexyl and n-octyl compounds.
Thin Layer Chromatography. The increase in the length of the alkyl chains is accompanied by an increase in the lipophilicity of the compounds as indicated by the increase in the retention factor Rf (porphyrin path/solvent path) (Table 1, FIG. 2). […] As the chains lengthen, their contribution to the overall lipophilicity increases, and eventually the n-octyl porphyrin and its Mn(III) complex are more alike in Rf than are methyl analogues.

A short description of data set [3]: Cyclic voltammetry, metal-centered redox potential E1/2 of Mn(III)/Mn(II) couple. Particulars: 0.05 M phosphate buffer (pH 7.8, 0.1 M NaCl). In kind it is physicochemical. The procedure: Electrochemistry. Measurements were performed on a CH Instruments Model 600 Voltammetric Analyzer.^3.4 A three-electrode system in a small volume cell (0.5 mL to 3 mL), with a 3 mm-diameter glassy carbon button working electrode (Bioanalytical Systems), plus the Ag/AgCl reference and Pt auxilliary electrodes was used. Solutions contained 0.05 M phosphate buffer, pH 7.8, 0.1 M NaCl, and […] metalloporphyrin. The scan rates were 0.01-0.5 V/s, typically 0.1 V/s. The potentials were standardized against the potassium ferrocyanide/ferricyanide^20 and/or against Mn^IIITE-2-PyP^5+. All voltammograms were reversible.
Electrochemistry. […] The metal-centered redox potentials, E1/2 are in Table 1 and the representative voltammograms of the Mn^III/IITE-2-PyP^5+/4+ and Mn^III/IITnHex-2-PyP^5+/4+ compounds are shown in the Supporting Material, FIG. 6. Both lipophilicity (FIG. 2B) and E1/2 (FIG. 3B, insert) increase exponentially with the number of CH2 groups in the alkyl chains. Consequently, the increase in E1/2 is a linear function of Rf (FIG. 3B).

Data set [4] is described as follows: Stability of reduced Mn(II) porphyrins in excess ascorbic acid. Particulars: aerobic, within 125 min; 6 μM, 70-fold excess of ascorbic acid, pH 7.8, 0.1 M tris buffer; reduced Mn(II) form.
Description: Therefore, we also examined the behavior of the reduced and more biologically relevant Mn^IIT(alkyl)-2-PyP^4+ compounds. We compared the methyl, n-hexyl and n-octyl derivatives (6 μM) aerobically and anaerobically in the presence of a 70-fold excess of ascorbic acid (pH 7.8, 0.1 M tris buffer) and in the presence and absence of a 150-fold excess of EDTA.
A short description of data set [5]: Mn loss from Mn porphyrins in 12 M HCl. The data set is classed as physicochemical. The procedure:
The half-lives for the acid and anion-catalyzed removal of zinc from Zn N-methylated derivatives^35 in 1.0 M HNO3 were 89 s for the meta, 165 s for the para, and 19 hours for the ortho ZnTM-2-PyP^4+. […] In addition to porphyrin ring distortion,^29-32 the steric hindrance and solvation effects imposed by the progressively longer alkyl chains may also contribute to the differences in metaladon/demetalation behavior.

Data set [6] in a line: Spectrophotometric proton dissociation constant pKa2. In kind it is physicochemical. Particulars: of the metal-free porphyrin H2T(alkyl)-2-PyP^4+; 25° C., ionic strength 0.10 (NaNO3/NaOH). The method, then:
Uv/vis spectroscopy. The uv/vis spectra were taken on a Shimadzu UV-2501 PC spectrophotometer at 25° C. The proton dissociation constants (pKa2), were determined spectrophotometrically at 25° C., at an ionic strength of 0.1 M (NaOH/NaNO3), as previously described.^4
The proton dissociation constants, Ka2 and Ka3 are defined as follows: H2P^4+ ? HP^3++H^+Ka2 [1] H3P^5+ ? H2P^4++H^+ Ka3 [2] As the alkyl chains lengthen the porphyrins become less hydrated and the separation of charges (eq) becomes less favorable, ie. pKa2 increases (FIG. 3 insert).

For data set [7] the following is noted: stroke, diabetes, sickle cell disease, cancer/radiation; cited from earlier work.
Data set [8] concerns SOD-deficient Escherchia coli. Particulars: aerobic conditions; cited from earlier work.
For data set [9] the following is noted: equilibrium H3P^5+ = H2P^4+ + H^+; cited from earlier work.
For data set [10] the following is noted: kcat=kred=kox; cited from earlier work.
For data set [11] the following is noted: 1.0 M HNO3, within a week; cited from earlier work.

`CCCCCC[n+]1ccccc1-c1c2nc(c(-c3cccc[n+]3CCCCCC)c3ccc([nH]3)c(-c3cccc[n+]3CCCCCC)c3nc(c(-c4cccc[n+]4CCCCCC)c4ccc1[nH]4)C=C3)C=C2.[Mn+3]` [Mn^IIITnHex-2-PyP^5+]: in data set [1], the log kcat turned out to be 7.48. For the same molecule, in data set [2], the “Rf (compound path/solvent path)” value worked out at 0.57 and the “Rf (compound path/solvent path), metal-free porphyrin (in parentheses)” value came out at 0.63. For the same molecule, the E1/2 entry in [3] is “+314 mV vs NHE”. Moreover, the “degradation of Mn(II) porphyrin” value in [4] was “none”. In [5] (solid dissolved in 12 M HCl, 3 months), the “spectral change (Mn loss)” value was “the spectra did not change within 3 months”. The molecule also displayed a pKa2 in data set [6] of 12.2.

Regarding `CCCC[n+]1ccccc1-c1c2nc(c(-c3cccc[n+]3CCCC)c3ccc([nH]3)c(-c3cccc[n+]3CCCC)c3nc(c(-c4cccc[n+]4CCCC)c4ccc1[nH]4)C=C3)C=C2.[Mn+3]` [Mn^IIITnBut-2-PyP^5+], in data set [1], the log kcat worked out at 7.25. Also, in data set [2], the “Rf (compound path/solvent path)” value is recorded as 0.33 and the “Rf (compound path/solvent path), metal-free porphyrin (in parentheses)” value worked out at 0.46. In addition, the E1/2 result in data set [3] was “+254 mV vs NHE”. This molecule also yielded a pKa2 in data set [6] of 11.7.

Turning to `C[n+]1ccccc1-c1c2nc(c(-c3cccc[n+]3C)c3ccc([nH]3)c(-c3cccc[n+]3C)c3nc(c(-c4cccc[n+]4C)c4ccc1[nH]4)C=C3)C=C2.[Mn+3]` [Mn^IIITM-2-PyP^5+, Mn(III) meso tetrakis(N-methylpyridinium-2-yl)porphyrin], the log kcat in [1] is 7.79. Also, in [2], the “Rf (compound path/solvent path)” value was found to be 0.09 and the “Rf (compound path/solvent path), metal-free porphyrin (in parentheses)” value was 0.13. Further, the E1/2 result in data set [3] was “+220 mV vs NHE”. Moreover, the “protection in rodent models of oxidative stress” value in data set [7] is given as “offer protection in rodent models of oxidative stress”. Also, in data set [8], the “growth of SOD-deficient E. coli” value is on record as “allow SOD-deficient Escherchia coli to grow under aerobic conditions”. The “degradation of Mn(II) porphyrin” value in data set [4] is −40%. In [5] (12 M HCl, within a month), the Mn lost entry is “over 50%”. The pKa2 in [6] worked out at 10.9.

Take `C[n+]1cccc(-c2c3nc(c(-c4ccc[n+](C)c4)c4ccc([nH]4)c(-c4ccc[n+](C)c4)c4nc(c(-c5ccc[n+](C)c5)c5ccc2[nH]5)C=C4)C=C3)c1` [H2TM-3-PyP^4+]: the pKa3 in [9] is recorded as 1.8.

Turning to `C[n+]1ccc(-c2c3nc(c(-c4cc[n+](C)cc4)c4ccc([nH]4)c(-c4cc[n+](C)cc4)c4nc(c(-c5cc[n+](C)cc5)c5ccc2[nH]5)C=C4)C=C3)cc1` [H2TM-4-PyP^4+], the pKa3 in [9] was 1.4.

Take “CuZn—SOD: CuZn superoxide dismutase enzyme”: the kcat in data set [10] was 2e+09 M⁻¹ s⁻¹.

For the molecule `CCCCCC[n+]1ccccc1-c1c2nc(c(-c3cccc[n+]3CCCCCC)c3ccc([nH]3)c(-c3cccc[n+]3CCCCCC)c3nc(c(-c4cccc[n+]4CCCCCC)c4ccc1[nH]4)C=C3)C=C2.[Zn+2]` [ZnTnHex-2-PyP^4+], the zinc loss entry in data set [11] is reported as “No indication of zinc loss was found within a week”.

For “meso tetrakis(N-ethylpyridinium-2-yl)porphyrins [Mn^IIITE-2-PyP^5+]”, the log kcat in data set [1] worked out at 7.76. Also, in data set [2], the “Rf (compound path/solvent path)” value was 0.13 and the “Rf (compound path/solvent path), metal-free porphyrin (in parentheses)” value turned out to be 0.21. Also, the E1/2 result in [3] was “+228 mV vs NHE”. Moreover, the “protection in rodent models of oxidative stress” value in data set [7] is reported as “offer protection in rodent models of oxidative stress”. Besides, the “growth of SOD-deficient E. coli” value in data set [8] is on record as “allow SOD-deficient Escherchia coli to grow under aerobic conditions”. Moreover, the pKa2 in data set [6] came to 10.9.

In [1], `CCCCCCCC[n+]1ccccc1-c1c2nc(c(-c3cccc[n+]3CCCCCCCC)c3ccc([nH]3)c(-c3cccc[n+]3CCCCCCCC)c3nc(c(-c4cccc[n+]4CCCCCCCC)c4ccc1[nH]4)C=C3)C=C2.[Mn+3]` [Mn^IIITnOct-2-PyP^5+] showed a log kcat of 7.71. For the same molecule, in data set [2], the “Rf (compound path/solvent path)” value came out at 0.80 and the “Rf (compound path/solvent path), metal-free porphyrin (in parentheses)” value amounted to 0.86. Also, in [3], the E1/2 result is “+367 mV vs NHE”. Moreover, the “degradation of Mn(II) porphyrin” value in data set [4] is on record as “none”. Moreover, in data set [6], the pKa2 came out at 13.2.
